Source: US11564959B2 (SHISEIDO COMPANY, LTD., priority 2016, dated 2023)
Counter-ions that a name gives are not always drawn.

Experiments:
MCSP-positive cells [1] = experiment: Tissue culture of human skin with MMP and heparanase inhibiting agents, MCSP staining; type: cell-based; conditions: CGS27023A 10 μM and BIPBIPU 10 μM added together, 4 days of culturing, abdominal skin
Excerpt: DAPI was also used for nuclear staining. […] DAPI was also used for nuclear staining.

PDGF-BB = experiment: Membrane array of cytokines in epidermis protein extract of three-dimensional skin model; type: cell-based; conditions: CGS27023A 10^−5 M and BIPBIPU 10^−5 M added together, 2nd, 4th and 7th day, data not shown
Excerpt: The epidermis was collected from the skin model on the 2nd day, 4th day and 7th day of culturing, and RIPA buffer by Nacalai was used to prepare a protein extract. Using a membrane array kit (ab134002) by Abcam Co., the amounts of different cytokines in the protein extract were detected using a LAS-1000UVmini by Fujifilm and digitized with the included software, and a graph was drawn (data not shown). The cytokines whose amounts increased compared to the control were selected as candidate cytokines that promote type V collagen expression. Three cytokines including PDGF-BB were selected as candidate cytokines.

laminin 511 [2] = conditions: CGS27023A 10 μM and BIPBIPU 10 μM added together, 4 days of culturing, abdominal skin
Experimental: The taken samples were cultured for 4 days in culture medium containing the MMP9 inhibiting agent CGS270234 (10 μM) and the heparanase inhibiting agent BIPBIU (10 μM).

MCSP-positive cells [3] = experiment: Ex vivo human skin organ culturing with HEI, MCSP staining; type: cell-based; conditions: 0.01% HEI, 5 days, abdominal skin
heparanase = molecular target: T1, heparanase (Homo sapiens, UniProt Q9Y251); experiment: Heparanase assay on heparan sulfate immobilization plate with A431 cell lysate; type: biochemical; conditions: 0.0005%, 0.005% or 0.05% HEI, 3 hours at 37° C., FIG. 8
T1 construct: endogenous in cells; host or cells: A431 cell lysate
T1 sequence (Q9Y251 158-543 limits assumed): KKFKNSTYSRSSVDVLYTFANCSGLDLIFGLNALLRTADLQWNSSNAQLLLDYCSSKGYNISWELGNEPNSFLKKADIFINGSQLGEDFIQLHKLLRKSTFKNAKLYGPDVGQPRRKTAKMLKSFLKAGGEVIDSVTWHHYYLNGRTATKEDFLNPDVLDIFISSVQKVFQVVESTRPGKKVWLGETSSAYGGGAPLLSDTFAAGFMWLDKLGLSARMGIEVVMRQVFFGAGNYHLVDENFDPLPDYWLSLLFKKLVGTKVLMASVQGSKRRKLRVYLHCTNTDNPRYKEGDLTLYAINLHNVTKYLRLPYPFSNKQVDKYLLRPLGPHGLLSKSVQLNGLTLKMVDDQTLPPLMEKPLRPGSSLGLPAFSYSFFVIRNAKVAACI
T1 sequence (Q9Y251 36-109 limits assumed): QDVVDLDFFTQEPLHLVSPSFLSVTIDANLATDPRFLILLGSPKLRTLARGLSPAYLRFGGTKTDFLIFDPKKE
Experimental: A heparanase assay was carried out using a heparan sulfate immobilization plate, as described in Behzad F, et al., Analytical Biochemistry, 320, pp. 207-213, 2003. Specifically, heparan sulfate (Seikagaku, Tokyo, Japan) was reacted with photobiotin to prepare biotinylated heparan sulfate. The biotinylated heparan sulfate was fixed onto a carbohydrate-binding surface plate (Coastar, Tokyo, Japan). A431 cell lysate (50 μg/ml) and 0% HEI, 0.0005% HEI, 0.005% HEI or 0.05% HEI were added onto the biotinylated heparan sulfate immobilized plate, incubated for 3 hours at 37° C., and then rinsed with PBS-T. Next, peroxidase-avidin (Vector Laboratories, Inc. CA, USA) was incubated at 37° C. for 1 hour. A 3,3′,5,5′-tetramethylbenzidine (TMB) solution (Bio-Rad, Tokyo, Japan) was added, and the plate was further incubated at room temperature for 30 minutes. The absorbance at 450 nm was measured to determine the heparanase inhibiting effect.

recombinant human MMP-9 = molecular target: T2, recombinant human MMP-9 (Homo sapiens, UniProt P14780); experiment: MMP-9 colorimetric drug discovery kit assay; type: biochemical; conditions: 0.0001%, 0.001% and 0.01% HEI, FIG. 9
T2 construct: purchased Enzo Life Sciences Inc
Experimental: An MMP9 assay was carried out using a Matrix Metalloproteinase-9 (MMP-9) colorimetric drug discovery kit (Enzo Life Sciences Inc.). Specifically, HEI was added to a recombinant human MMP-9 enzyme solution to 0.0001%, 0.001% and 0.01% concentration. After mixing with chromogenic MMP-9 substrate, the absorbance at 412 nm was measured every other minute. The MMP-9 inhibition rate (%) for HEI was calculated from the slope of the absorbance (OD/min).

filaggrin = experiment: Ex vivo human skin organ culturing with HEI, filaggrin staining; type: cell-based; conditions: 0.01% HEI, 5 days
Experimental: (§1) The taken samples were cultured for 5 days in culture medium containing 0.01% HEI. […] The excess moisture adhering to the cultured skin sample was wiped off with a Kimtowel, and after allowing it to stand for 5 minutes, a Vapometer was used for TEWL measurement, and a Corneometer was used to measure the stratum corneum moisture content.
DAPI was also used for nuclear staining.

human skin = experiment: Ex vivo human skin organ culturing with HEI, TEWL and stratum corneum moisture; type: cell-based; conditions: 0.01% HEI, 5 days
Experimental: as §1

[4] = In vivo human application test of HEI solution on the face, TEWL and stratum corneum moisture; conditions: 1.5% HEI solution on one side of the face, twice a day for 4 weeks, water on other side
Experimental: Next, 20 males from 20 to 50 years of age were asked to apply a 1.5% HEI solution on one side of the face and water on the other side of the face, twice a day for 4 weeks. Before application, 2 weeks after application and 4 weeks after application, the TEWL was measured using a Vapometer, and a Corneometer was used to measure the stratum corneum moisture content.

laminin 511 [5] = experiment: Ex vivo human skin organ culturing with HEI, laminin 511 staining; conditions: 0.01% HEI, 5 days, abdominal skin
[6] = system: gene COL5A1 for type V collagen; experiment: COL5A1 expression in human fibroblasts after addition of recombinant cytokine; type: cell-based; conditions: normal human fibroblasts, 24 hours
Experimental: The selected recombinant cytokine proteins were purchased from R&D Co. Normal human fibroblasts from skin harvested from 14-month-old children were cultured for 24 hours in 10% FBS-added DMEM, and the medium in the cultured product was exchanged with another medium added to DMEM medium containing 25% serum for a prescribed concentration of each cytokine, after which culturing was continued for 24 hours. After culturing, the cells were collected and the mRNA was extracted with Trizol. The cDNA was rapidly prepared, and the aforementioned primers were used for real-time PCR to evaluate the gene expression levels of the gene COL5A1 for type V collagen (FIG. 15).

T2 sequence (P14780 107-444 limits assumed): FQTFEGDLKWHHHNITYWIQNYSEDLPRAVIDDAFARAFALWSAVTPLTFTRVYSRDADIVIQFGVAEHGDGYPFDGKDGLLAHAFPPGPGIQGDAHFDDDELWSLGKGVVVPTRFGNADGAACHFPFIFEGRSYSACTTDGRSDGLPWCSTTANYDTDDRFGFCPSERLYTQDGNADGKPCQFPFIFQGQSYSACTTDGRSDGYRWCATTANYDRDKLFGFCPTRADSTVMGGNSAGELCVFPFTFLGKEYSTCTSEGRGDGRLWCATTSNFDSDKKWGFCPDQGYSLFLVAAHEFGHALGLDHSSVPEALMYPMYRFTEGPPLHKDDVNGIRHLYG

Molecule: O=C(Nc1ccc(-c2nc3ccccc3[nH]2)cc1)Nc1ccc(-c2nc3ccccc3[nH]2)cc1 [BIPBIPU, 1-[4-(1H-benzoimidazol-2-yl)phenyl]-3-[4-(1H-benzoimidazol-2-yl)phenyl]urea]
- MCSP-positive cells after tissue culture (MCSP-positive cells [1]): maintenance or augmentation of MCSP
- amount of PDGF-BB in epidermis protein extract compared to the control (PDGF-BB): increased

Molecule: COc1ccc(S(=O)(=O)N(Cc2cccnc2)[C@@H](C(=O)NO)C(C)C)cc1 [CGS27023A, N-hydroxy-2(R)-[[(4-methoxy-phenyl)sulfonyl](3-picolyl)amino]-3-methylbutanamide hydrochloride]
- MCSP-positive cells after tissue culture (MCSP-positive cells [1]): maintenance or augmentation of MCSP
- amount of PDGF-BB in epidermis protein extract compared to the control (PDGF-BB): increased
- laminin 511 in the basal membrane after tissue culture (laminin 511 [2]): augmentation of laminin 511

Molecule: O=C1NCCN1CCO [HEI, 1-(2-Hydroxyethyl)-2-imidazolidinone]
- MCSP-positive cell count on the basal membrane after culturing (MCSP-positive cells [3]): maintained
- heparanase inhibiting effect (heparanase): inhibit heparanase activity in a dose-dependent manner
- MMP9 inhibition (recombinant human MMP-9): inhibit MMP9 activity in a dose-dependent manner
- filaggrin protein expression (filaggrin): tendency for increase
- stratum corneum moisture content (human skin; Corneometer): increased
- TEWL (human skin; Vapometer): decreased
- TEWL [4]: decreased
- stratum corneum moisture content [4]: increased
- amount of laminin 511 after culturing (laminin 511 [5]): maintained

B1: PDGF-BB: recombinant cytokine protein purchased from R&D Co. (protein, UniProt P01127 82-190, looked up)
Platelet-derived growth …: SLGSLTIAEPAMIAECKTRTEVFEISRRLIDRTNANFLVWPPCVEVQRCSGCCNNRNVQCRPTQVQLRPVQVRKIEIVRKKPIFKKATVTLEDHLACKCETVAAARPVT
- type V collagen production (COL5A1 gene expression) [6]: significantly increased
